According to patent publication US7226944B2, “Taxanes having a C7 carbonate substituent” (FSU Research Foundation, Inc., priority 2000, dated 2007):

System: HCT116
Assay: In vitro cytotoxicity measured by the cell colony formation assay
Type: cell-based
Conditions: HCT116 cells; drug concentration producing 50% inhibition of colony formation; 72 h with drug at 37° C., colonies counted after 7 days; read-out: IN VITRO ID 50 (nm) HCT116
Description: Four hundred cells (HCT116) were plated in 60 mm Petri dishes containing 2.7 mL of medium (modified McCoy's 5a medium containing 10% fetal bovine serum and 100 units/mL penicillin and 100 µg/mL streptomycin). The cells were incubated in a CO2 incubator at 37° C. for 5 h for attachment to the bottom of Petri dishes. The compounds identified in Example 2 were made up fresh in medium at ten times the final concentration, and then 0.3 mL of this stock solution was added to the 2.7 mL of medium in the dish. The cells were then incubated with drugs for 72 h at 37° C. At the end of incubation the drug-containing media were decanted, the dishes were rinsed with 4 mL of Hank's Balance Salt Solution (HBSS), 5 mL of fresh medium was added, and the dishes were returned to the incubator for colony formation. The cell colonies were counted using a colony counter after incubation for 7 days.

| Compound | IC50 [nM] |
| --- | --- |
| COC(=O)O[C@H]1C[C@H]2OC[C@@]2(OC(C)=O)C2[C@H](OC(=O)c3ccccc3)[C@]3(O)C[C@H](OC(=O)[C@H](O)[C@@H](NC(=O)OC(C)C)c4cccs4)C(C)=C([C@@H](O)C(=O)[C@@]21C)C3(C)C (stereo partly shown) [Compound 4144] | < 1 |
| CCOC(=O)O[C@H]1C[C@H]2OC[C@@]2(OC(C)=O)C2[C@H](OC(=O)c3ccccc3)[C@]3(O)C[C@H](OC(=O)[C@H](O)[C@@H](NC(=O)OC(C)C)c4cccs4)C(C)=C([C@@H](O)C(=O)[C@@]21C)C3(C)C (stereo partly shown) [Compound 4151] | < 1 |
| CCOC(=O)O[C@H]1C[C@H]2OC[C@@]2(OC(C)=O)C2[C@H](OC(=O)c3ccccc3)[C@]3(O)C[C@H](OC(=O)[C@H](O)[C@@H](NC(=O)C=C(C)C)c4cccs4)C(C)=C([C@@H](O)C(=O)[C@@]21C)C3(C)C (stereo partly shown) [Compound 4164] | < 1 |
| CCOC(=O)O[C@H]1C[C@H]2OC[C@@]2(OC(C)=O)C2[C@H](OC(=O)c3ccccc3)[C@]3(O)C[C@H](OC(=O)[C@H](O)[C@@H](NC(=O)c4ccccc4)c4cccs4)C(C)=C([C@@H](O)C(=O)[C@@]21C)C3(C)C (stereo partly shown) [Compound 4188] | < 10 |
| COC(=O)O[C@H]1C[C@H]2OC[C@@]2(OC(C)=O)C2[C@H](OC(=O)c3ccccc3)[C@]3(O)C[C@H](OC(=O)[C@H](O)[C@@H](NC(=O)c4ccco4)c4cccs4)C(C)=C([C@@H](O)C(=O)[C@@]21C)C3(C)C (stereo partly shown) [Compound 4222] | < 1 |
| CCOC(=O)O[C@H]1C[C@H]2OC[C@@]2(OC(C)=O)C2[C@H](OC(=O)c3ccccc3)[C@]3(O)C[C@H](OC(=O)[C@H](O)[C@@H](NC(=O)OC(C)(C)C)c4cccs4)C(C)=C([C@@H](O)C(=O)[C@@]21C)C3(C)C (stereo partly shown) [Compound 4234] | < 1 |
| COC(=O)O[C@H]1C[C@H]2OC[C@@]2(OC(C)=O)C2[C@H](OC(=O)c3ccccc3)[C@]3(O)C[C@H](OC(=O)[C@H](O)[C@@H](NC(=O)C=C(C)C)c4cccs4)C(C)=C([C@@H](O)C(=O)[C@@]21C)C3(C)C (stereo partly shown) [Compound 4244] | < 1 |
| CCOC(=O)O[C@H]1C[C@H]2OC[C@@]2(OC(C)=O)C2[C@H](OC(=O)c3ccccc3)[C@]3(O)C[C@H](OC(=O)[C@H](O)[C@@H](NC(=O)c4ccco4)c4cccs4)C(C)=C([C@@H](O)C(=O)[C@@]21C)C3(C)C (stereo partly shown) [Compound 4304] | < 10 |
| COC(=O)O[C@H]1C[C@H]2OC[C@@]2(OC(C)=O)C2[C@H](OC(=O)c3ccccc3)[C@]3(O)C[C@H](OC(=O)[C@H](O)[C@@H](NC(=O)OCC(C)C)c4cccs4)C(C)=C([C@@H](O)C(=O)[C@@]21C)C3(C)C (stereo partly shown) [Compound 4355] | < 1 |
| CCOC(=O)O[C@H]1C[C@H]2OC[C@@]2(OC(C)=O)C2[C@H](OC(=O)c3ccccc3)[C@]3(O)C[C@H](OC(=O)[C@H](O)[C@@H](NC(=O)OCC(C)C)c4cccs4)C(C)=C([C@@H](O)C(=O)[C@@]21C)C3(C)C (stereo partly shown) [Compound 4363] | < 10 |
| COC(=O)O[C@H]1C[C@H]2OC[C@@]2(OC(C)=O)C2[C@H](OC(=O)c3ccccc3)[C@]3(O)C[C@H](OC(=O)[C@H](O)[C@@H](NC(=O)c4ccccc4)c4cccs4)C(C)=C([C@@H](O)C(=O)[C@@]21C)C3(C)C (stereo partly shown) [Compound 4411] | < 1 |
| COC(=O)O[C@H]1C[C@H]2OC[C@@]2(OC(C)=O)C2[C@H](OC(=O)c3ccccc3)[C@]3(O)C[C@H](OC(=O)[C@H](O)[C@@H](NC(=O)c4cccs4)c4cccs4)C(C)=C([C@@H](O)C(=O)[C@@]21C)C3(C)C (stereo partly shown) [Compound 4424] | < 1 |
| COC(=O)O[C@H]1C[C@H]2OC[C@@]2(OC(C)=O)C2[C@H](OC(=O)c3ccccc3)[C@]3(O)C[C@H](OC(=O)[C@H](O)[C@@H](NC(=O)OC(C)(C)C)c4ccoc4)C(C)=C([C@@H](O)C(=O)[C@@]21C)C3(C)C (stereo partly shown) [Compound 4434] | < 1 |
| CCOC(=O)O[C@H]1C[C@H]2OC[C@@]2(OC(C)=O)C2[C@H](OC(=O)c3ccccc3)[C@]3(O)C[C@H](OC(=O)[C@H](O)[C@@H](NC(=O)c4cccs4)c4cccs4)C(C)=C([C@@H](O)C(=O)[C@@]21C)C3(C)C (stereo partly shown) [Compound 4455] | < 1 |
| CCOC(=O)O[C@H]1C[C@H]2OC[C@@]2(OC(C)=O)C2[C@H](OC(=O)c3ccccc3)[C@]3(O)C[C@H](OC(=O)[C@H](O)[C@@H](NC(=O)OC(C)(C)C)c4ccoc4)C(C)=C([C@@H](O)C(=O)[C@@]21C)C3(C)C (stereo partly shown) [Compound 4464] | < 1 |
| COC(=O)O[C@H]1C[C@H]2OC[C@@]2(OC(C)=O)C2[C@H](OC(=O)c3ccccc3)[C@]3(O)C[C@H](OC(=O)[C@H](O)[C@@H](NC(=O)OC(C)(C)C)c4ccsc4)C(C)=C([C@@H](O)C(=O)[C@@]21C)C3(C)C (stereo partly shown) [Compound 4474] | < 1 |
| COC(=O)O[C@H]1C[C@H]2OC[C@@]2(OC(C)=O)C2[C@H](OC(=O)c3ccccc3)[C@]3(O)C[C@H](OC(=O)[C@H](O)[C@H](C=C(C)C)NC(=O)OC(C)(C)C)C(C)=C([C@@H](O)C(=O)[C@@]21C)C3(C)C (stereo partly shown) [Compound 4484] | < 1 |

| Compound | IC50 [nM] |
| --- | --- |
| CCOC(=O)O[C@H]1C[C@H]2OC[C@@]2(OC(C)=O)C2[C@H](OC(=O)c3ccccc3)[C@]3(O)C[C@H](OC(=O)[C@H](O)[C@@H](NC(=O)OC(C)(C)C)c4ccsc4)C(C)=C([C@@H](O)C(=O)[C@@]21C)C3(C)C (stereo partly shown) [Compound 4500] | < 1 |
| CC(=O)O[C@H]1C[C@H]2OC[C@@]2(OC(C)=O)C2[C@H](OC(=O)c3ccccc3)[C@]3(O)C[C@H](OC(=O)[C@H](O)[C@@H](NC(=O)OCC(C)C)c4ccsc4)C(C)=C([C@@H](O)C(=O)[C@@]21C)C3(C)C (stereo partly shown) [Compound 4515] | < 10 |
| CCOC(=O)O[C@H]1C[C@H]2OC[C@@]2(OC(C)=O)C2[C@H](OC(=O)c3ccccc3)[C@]3(O)C[C@H](OC(=O)[C@H](O)[C@H](C=C(C)C)NC(=O)OC(C)(C)C)C(C)=C([C@@H](O)C(=O)[C@@]21C)C3(C)C (stereo partly shown) [Compound 4524] | < 1 |
| COC(=O)O[C@H]1C[C@H]2OC[C@@]2(OC(C)=O)C2[C@H](OC(=O)c3ccccc3)[C@]3(O)C[C@H](OC(=O)[C@H](O)[C@@H](NC(=O)OC(C)(C)C)c4ccco4)C(C)=C([C@@H](O)C(=O)[C@@]21C)C3(C)C (stereo partly shown) [Compound 4533] | < 1 |
| CC(=O)O[C@H]1C[C@H]2OC[C@@]2(OC(C)=O)C2[C@H](OC(=O)c3ccccc3)[C@]3(O)C[C@H](OC(=O)[C@H](O)[C@@H](NC(=O)OC(C)(C)C)C4CC4)C(C)=C([C@@H](O)C(=O)[C@@]21C)C3(C)C (stereo partly shown) [Compound 4555] | < 1 |
| COC(=O)O[C@H]1C[C@H]2OC[C@@]2(OC(C)=O)C2[C@H](OC(=O)c3ccccc3)[C@]3(O)C[C@H](OC(=O)[C@H](O)[C@@H](NC(=O)OC(C)(C)C)C4CC4)C(C)=C([C@@H](O)C(=O)[C@@]21C)C3(C)C (stereo partly shown) [Compound 4566] | < 1 |
| COC(=O)O[C@H]1C[C@H]2OC[C@@]2(OC(C)=O)C2[C@H](OC(=O)c3ccccc3)[C@]3(O)C[C@H](OC(=O)[C@H](O)[C@@H](NC(=O)OCC(C)C)c4ccoc4)C(C)=C([C@@H](O)C(=O)[C@@]21C)C3(C)C (stereo partly shown) [Compound 4584] | < 10 |
| CCOC(=O)O[C@H]1C[C@H]2OC[C@@]2(OC(C)=O)C2[C@H](OC(=O)c3ccccc3)[C@]3(O)C[C@H](OC(=O)[C@H](O)[C@@H](NC(=O)OCC(C)C)c4ccoc4)C(C)=C([C@@H](O)C(=O)[C@@]21C)C3(C)C (stereo partly shown) [Compound 4624] | < 10 |
| COC(=O)O[C@H]1C[C@H]2OC[C@@]2(OC(C)=O)C2[C@H](OC(=O)c3ccccc3)[C@]3(O)C[C@H](OC(=O)[C@H](O)[C@H](C=C(C)C)NC(=O)OCC(C)C)C(C)=C([C@@H](O)C(=O)[C@@]21C)C3(C)C (stereo partly shown) [Compound 4644] | < 10 |
| COC(=O)O[C@H]1C[C@H]2OC[C@@]2(OC(C)=O)C2[C@H](OC(=O)c3ccccc3)[C@]3(O)C[C@H](OC(=O)[C@H](O)[C@@H](NC(=O)OCC(C)C)c4ccco4)C(C)=C([C@@H](O)C(=O)[C@@]21C)C3(C)C (stereo partly shown) [Compound 4656] | < 1 |
| COC(=O)O[C@H]1C[C@H]2OC[C@@]2(OC(C)=O)C2[C@H](OC(=O)c3ccccc3)[C@]3(O)C[C@H](OC(=O)[C@H](O)[C@@H](NC(=O)OCC(C)C)c4ccsc4)C(C)=C([C@@H](O)C(=O)[C@@]21C)C3(C)C (stereo partly shown) [Compound 4674] | < 1 |
| CCOC(=O)O[C@H]1C[C@H]2OC[C@@]2(OC(C)=O)C2[C@H](OC(=O)c3ccccc3)[C@]3(O)C[C@H](OC(=O)[C@H](O)[C@H](C=C(C)C)NC(=O)OCC(C)C)C(C)=C([C@@H](O)C(=O)[C@@]21C)C3(C)C (stereo partly shown) [Compound 4688] | < 10 |
| CCOC(=O)O[C@H]1C[C@H]2OC[C@@]2(OC(C)=O)C2[C@H](OC(=O)c3ccccc3)[C@]3(O)C[C@H](OC(=O)[C@H](O)[C@@H](NC(=O)OCC(C)C)c4ccco4)C(C)=C([C@@H](O)C(=O)[C@@]21C)C3(C)C (stereo partly shown) [Compound 4696] | < 1 |
| C/C=C/C(=O)N[C@@H](c1ccco1)[C@@H](O)C(=O)O[C@H]1C[C@@]2(O)[C@@H](OC(=O)c3ccccc3)C3[C@](C)(C(=O)[C@H](O)C(=C1C)C2(C)C)[C@@H](OC(=O)OC)C[C@H]1OC[C@@]31OC(C)=O (stereo partly shown) [Compound 4744] | < 1 |
| C/C=C/C(=O)N[C@@H](c1cccs1)[C@@H](O)C(=O)O[C@H]1C[C@@]2(O)[C@@H](OC(=O)c3ccccc3)C3[C@](C)(C(=O)[C@H](O)C(=C1C)C2(C)C)[C@@H](OC(=O)OC)C[C@H]1OC[C@@]31OC(C)=O (stereo partly shown) [Compound 4766] | < 1 |
| C/C=C/C(=O)N[C@@H](c1ccco1)[C@@H](O)C(=O)O[C@H]1C[C@@]2(O)[C@@H](OC(=O)c3ccccc3)C3[C@](C)(C(=O)[C@H](O)C(=C1C)C2(C)C)[C@@H](OC(=O)OCC)C[C@H]1OC[C@@]31OC(C)=O (stereo partly shown) [Compound 4818] | < 1 |
| C/C=C/C(=O)N[C@@H](c1cccs1)[C@@H](O)C(=O)O[C@H]1C[C@@]2(O)[C@@H](OC(=O)c3ccccc3)C3[C@](C)(C(=O)[C@H](O)C(=C1C)C2(C)C)[C@@H](OC(=O)OCC)C[C@H]1OC[C@@]31OC(C)=O (stereo partly shown) [Compound 4855] | < 1 |
